Data reported in paper PMC11469249, “Enzyme‐Triggered L‐α/D‐Peptide Hydrogels as a Long‐Acting Injectable Platform for Systemic Delivery of HIV/AIDS Drugs” (Advanced Healthcare Materials, 2023).
Where a SMILES comes first, the peptide text is derived from it. [ ]: non-standard residue; d: D form. The star is where a group is joined. X1 = Cc1cn([C@H]2C[C@H](N=[N+]=[N-])[C@@H](COC(=O)CCC(=O)*)O2)c(=O)[nH]c1=O; Acetyl(2-naphthyl) = O=C(Cc1ccc2ccccc2c1)*; pY = N[C@@H](Cc1ccc(OP(=O)(O)O)cc1)C(=O)O

How the values were obtained:
NCTC 929 (ATCC CCL 1) = assay: MTS viability assay, solubilized peptides; assay type: cell-based, murine; settings: 500 µM; at each timepoint (6, 24, 72 h)
Protocol: Cell toxicity was assessed above and below critical gelation concentrations utilizing the International Standard (ISO) murine fibroblast subcutaneous connective tissue cell line NCTC 929 (ATCC CCL 1).^[ [51] ^]
Preparation of tissue cell cytotoxicity assays: Cells were cultured in Minimum Essential Medium (MEM) containing phenol red, Earle's Salts, and L‐glutamine supplemented with 10% fetal bovine serum and 1 mM sodium pyruvate (Invitrogen, Paisley, UK) and grown at 37 °C/5% CO2. Cells were subcultured at 80–90% confluency via removal of media, washing with sterile PBS, and detachment of cell monolayers with 0.05% trypsin/0.53 mM EDTA.4Na solution (Invitrogen, Paisley, UK). Cells were cultured until at least the third passage, seeded at 1 × 10^4 cells per well in sterile 96‐well microtiter plates for 6 h, 24 h, and 56 day treatment times and seeded at 5 × 10^3 cells per well for 72 h treatment times. […]
Following exposure to peptide after 6, 24 and 72 h, cell viability was assessed using a MTS based CellTiter 96 AQueous One Solution Cell Proliferation Assay (Promega, Southampton, UK). Absorption was measured at 490 nm using a Tecan Sunrise plate reader (Tecan UK Ltd, Reading, UK). Cell viability was calculated using Equation (2) below and reported as the mean of nine replicates.

proteinase K = proteinase K (Parengyodontium album, UniProt P06873); assay: Biostability against proteinase K; assay type: in vitro ADME; settings: after 672 h (28 days); 0.02 w/v% peptide in PBS; proteinase K 3 U/mL; 37 °C; RP-HPLC peak area vs t = 0; mean n = 3
proteinase K, sequence (P06873 106-384): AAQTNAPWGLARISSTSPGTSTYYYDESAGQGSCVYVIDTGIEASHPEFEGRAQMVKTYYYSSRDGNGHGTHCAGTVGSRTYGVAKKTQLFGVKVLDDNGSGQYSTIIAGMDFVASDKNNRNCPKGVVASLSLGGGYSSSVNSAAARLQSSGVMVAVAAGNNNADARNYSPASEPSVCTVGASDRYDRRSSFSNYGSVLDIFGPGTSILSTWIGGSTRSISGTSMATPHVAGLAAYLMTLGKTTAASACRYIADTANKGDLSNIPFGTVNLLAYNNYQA
Protocol: Peptides were tested for stability at multiple time points over 28 days by incubation with the broad‐spectrum protease proteinase K. Peptides were tested in solution form at concentrations below their critical gelation concentrations (0.02 w/v%) to reduce any resistance to proteolysis offered by the hydrogel matrix itself.^[ [76] ^] 1 mL aliquots of peptide dissolved in PBS buffer were added to Eppendorf tubes. Proteinase K was added at a concentration of 3 U/mL and incubated at 37 °C. Then 100 µL samples were removed at pre‐determined time points (t = 0, 0.5, 1, 3, 6, 24, 72, 168, 336, 504, and 672 h) and added to 50 µL of concentrated acetic acid to inactivate proteinase K enzyme. Then 100 µL samples were then analyzed via RP‐HPLC. The amount of peptide remaining at each time point was calculated based on the area of the peak corresponding to the peptide and presented as a percentage of the area of this peak at t = 0 (Equation (1)). (1) %Peptideremaining=Areaofpeptidepeakattesttimepoint/[Areaofpeptidepeakatt=0]×100

[1] = system: alkaline phosphatase enzyme; assay: Rheological time sweeps, gelation time after alkaline phosphatase addition; assay type: physicochemical; settings: time sweep, 2 w/v%, 2 U alkaline phosphatase, 37 °C; for G′ and G″ cross (gelation time): PP50/S parallel plate, 0.5 mm gap
Protocol: The gelation of peptides and peptide‐antiretroviral conjugates was tested over a range of concentrations (0.1–2 w/v%) in pH 7.4 phosphate buffered saline (PBS). The ability of alkaline phosphatase enzyme to trigger gelation was studied by adding 2 µL of 2 U (1000 U/mL) solution to the dissolved peptide‐PBS mixtures. Hydrogel formulation steps are outlined fully in Table S2, Supporting Information. A vial inversion assay was used as a screening tool to assess gel propensity, whereby peptide‐PBS‐alkaline phosphatase mixtures were inverted within glass HPLC vials. Gel formation and the mechanical strength of gels were definitively characterized via oscillatory rheology using an Anton Paar MCR302 rheometer (Anton Paar, St Albans, UK). A vane and cup geometry was used to perform frequency and strain sweeps. Gels were formulated as 2 mL volumes in 7 mL Sterilin vials as previously described.^[ [39b] ^] Frequency sweeps were performed at 37 °C from 1–100 rad/s at a strain of 0.5%. Amplitude sweeps were performed at 37 °C, 2.5 rad/s and a strain of 0.01–1000%. Flow point or breakage strain, where G″ ≥ G′ within the strain sweeps, was used as a measurement of gel strength. Time sweeps were performed using a sand blasted parallel plate PP50/S system at 37 °C with a 0.5 mm measuring gap over a period of 24 h. Loss and storage moduli, critical strain, viscosity, and oscillatory time sweeps were performed to relate rheological changes with time and potential for rapid in situ hydrogel implant formation upon exposure to 2 U phosphatase enzyme.
Table S3. Gelation times for peptide hydrogels upon addition of alkaline phosphatase enzyme derived from data above in Figure S12 and Figure 3 c-d.
Peptide G′ and G″ G′ > 2x G′′ Time for […]
d) NapFFK(AZT)Y-OH 8.5 min 9 min 88.3 min

[2] = Small angle neutron scattering (SANS) of hydrogels; assay type: physicochemical; settings: 2 w/v% hydrogels in D2O; flexible cylinder elliptical model with Power Law
Protocol: SANS was used to determine the morphology of the structures underpinning the hydrated peptide gel network. Both drug and non‐drug conjugated forms of peptides L‐α (NapFFKY‐OH and NapFFKYG‐OH) and D‐enantiomer (NapffkY‐OH and NapffkYG‐OH) were studied. Peptide hydrogels (2 w/v%) were formulated as described (Table S2, Supporting Information) in 2 mm path length UV spectrophotometer grade quartz cuvettes (Hellma) but using deuterated water (D2O) rather than PBS. SANS measurements were performed using the D11 instrument at the Institut Laue – Langevin, Grenoble, France. Scattering from the primary assembled structures (most commonly fibers) and the network were collected over a wide Q range (Q = 4πsin(θ/2)/λ) of 0.001 to 0.5 Å^−1 and three sample‐detector distances (1.4, 8, and 39 m).^[ [44] ^] Peptide samples were placed in a temperature‐controlled sample rack during measurements. The datasets obtained were reduced to 1D scattering curves of intensity versus Q using the facility provided software. Scattering from D2O controls, empty cuvette, and electronic background were subtracted from the data and the full detector images were normalized. SasView software version 5.0.4 was used to fit instrument‐independent data to several models with and without a power law applied, including a cylinder, an elliptical cylinder, a flexible cylinder, a flexible elliptical cylinder and hollow cylinders. […]

NCTC 929 cells = assay: 56 day indirect toxicity of hydrogels, LDH; assay type: cell-based, murine; settings: 2 w/v% hydrogel supernatant; 6 h exposure; n = 3
Protocol: Biocompatibility at the highest gel concentration of 2.0 w/v% was examined by measuring cell metabolic activity (MTS) and cytotoxicity (LDH release) in the presence of media containing leached degradation products from the peptide gels over a period of 56 days.^[ [77] ^] Following the formation of gels as outlined in Table S2, Supporting Information, 2 mL of media was added on top of each gel (1 mL of 2 w/v% gel) within a 10 mL glass vial and incubated at 37 °C and 5% CO2. For each time point in the 56 day study, NCTC 929 cells at 80–90% confluency were seeded into the wells of a 96 well plate at a concentration of 1 × 10^4 cells per well and incubated for a period of 24 h. One set of wells was left untreated and acted as the negative control, that is, metabolic activity of cells with no peptide. In the case of the LDH indirect toxicity assay, the media was removed from the cells before adding 50 µL of fresh media and 50 µL of the supernatant from the 2.0 w/v% gels at specific time points: 1, 3, 7, 14, 21, 28, and 56 days and incubated for 6 h before adding the test reagent as described above. A high LDH release control and a low LDH release control were created as before. Each experiment was performed in triplicate. The percentage cytotoxicity was calculated using Equation (2) above. […] The metabolic activity was calculated using Equation (1) above.

## Cc1cn([C@H]2C[C@H](N=[N+]=[N-])[C@@H](COC(=O)CCC(=O)NCCCC[C@H](NC(=O)[C@H](Cc3ccccc3)NC(=O)[C@H](Cc3ccccc3)NC(=O)Cc3ccc4ccccc4c3)C(=O)N[C@@H](Cc3ccc(OP(=O)(O)O)cc3)C(=O)O)O2)c(=O)[nH]c1=O [NapFFK(AZT)Y(p)-OH] ({Acetyl(2-naphthyl)}-FFK(X1)[pY]-OH)
NCTC 929 (ATCC CCL 1)
  reduction in cell metabolic activity (MTS): 40–51%

## Cc1cn([C@H]2C[C@H](N=[N+]=[N-])[C@@H](COC(=O)CCC(=O)NCCCC[C@H](NC(=O)[C@H](Cc3ccccc3)NC(=O)[C@H](Cc3ccccc3)NC(=O)Cc3ccc4ccccc4c3)C(=O)N[C@@H](Cc3ccc(OP(=O)(O)O)cc3)C(=O)NCC(=O)O)O2)c(=O)[nH]c1=O [NapFFK(AZT)Y(p)G-OH]
Subcutaneous administration, within IC50 range
  zidovudine blood plasma concentrations for 35 days: 30 to 130 ng/mL

## NCCCC[C@H](NC(=O)[C@H](Cc1ccccc1)NC(=O)[C@H](Cc1ccccc1)NC(=O)Cc1ccc2ccccc2c1)C(=O)N[C@@H](Cc1ccc(OP(=O)(O)O)cc1)C(=O)O [NapFFKY(p)-OH, phosphorylated (naphthalene‐2‐ly)‐acetyl‐diphenylalanine‐lysine‐tyrosine‐OH] (HELM PEPTIDE1{[O=C(Cc1ccc2ccccc2c1)[*:2]].F.F.K.[O=C(O)[C@H](Cc1ccc(OP(=O)(O)O)cc1)N[*:1]]}$$$$V2.0)
Proteinase K
  % peptide remaining: 85.4%

## NCCCC[C@H](NC(=O)[C@H](Cc1ccccc1)NC(=O)[C@H](Cc1ccccc1)NC(=O)Cc1ccc2ccccc2c1)C(=O)N[C@@H](Cc1ccc(OP(=O)(O)O)cc1)C(=O)NCC(=O)O [NapFFKY(p)G-OH]
Proteinase K
  % peptide remaining: 91.9%

## Cc1cn([C@H]2C[C@H](N=[N+]=[N-])[C@@H](CO)O2)c(=O)[nH]c1=O [zidovudine, reference compound]
Zidovudine intravenous control
  time after which plasma zidovudine is undetectable: 6 h

## NapFFKY-OH [hydrogel-forming peptide after phosphatase removal of the phosphate group]
[1]
  G′ > 2x G″: 9.67 min
  Time for stable G′: 68.3 min
  G′ and G″ cross (gelation time): 8.58 min
[2]
  fiber radius: 1.495 nm

## NapFFKYG-OH [hydrogel-forming L-α peptide with glycine spacer]
[1]
  G′ > 2x G″: 7.75 min
  Time for stable G′: 65.7 min
  G′ and G″ cross (gelation time): 5.92 min
[2]
  fiber radius: 2.038 nm
NCTC 929 cells
  LDH cell toxicity, indirect, after 21 days: 23.2%
  LDH cell toxicity, indirect, after 56 days: 37%
